Reference: patent publication US10654807B2, “Toll-like receptor 8 agonists” (The University Of Kansas, priority 2013, dated 2020)
Entries after “also recorded” stand apart in the source; their conditions may differ.

Each compound was assayed against T1, human TLR8 (Homo sapiens, UniProt Q9NR97) (assay: human TLR8-specific HEK-Blue reporter gene assay (NF-κB induction)). Conditions: TLR8 primary screen.
T1 construct: HEK293 cells stably co-transfected with the appropriate hTLR, MD2, and secreted alkaline phosphatase (sAP); expressed in transfected cells; host or cells: HEK293 (HEK-Blue™)
T1 sequence (Q9NR97 27-1041): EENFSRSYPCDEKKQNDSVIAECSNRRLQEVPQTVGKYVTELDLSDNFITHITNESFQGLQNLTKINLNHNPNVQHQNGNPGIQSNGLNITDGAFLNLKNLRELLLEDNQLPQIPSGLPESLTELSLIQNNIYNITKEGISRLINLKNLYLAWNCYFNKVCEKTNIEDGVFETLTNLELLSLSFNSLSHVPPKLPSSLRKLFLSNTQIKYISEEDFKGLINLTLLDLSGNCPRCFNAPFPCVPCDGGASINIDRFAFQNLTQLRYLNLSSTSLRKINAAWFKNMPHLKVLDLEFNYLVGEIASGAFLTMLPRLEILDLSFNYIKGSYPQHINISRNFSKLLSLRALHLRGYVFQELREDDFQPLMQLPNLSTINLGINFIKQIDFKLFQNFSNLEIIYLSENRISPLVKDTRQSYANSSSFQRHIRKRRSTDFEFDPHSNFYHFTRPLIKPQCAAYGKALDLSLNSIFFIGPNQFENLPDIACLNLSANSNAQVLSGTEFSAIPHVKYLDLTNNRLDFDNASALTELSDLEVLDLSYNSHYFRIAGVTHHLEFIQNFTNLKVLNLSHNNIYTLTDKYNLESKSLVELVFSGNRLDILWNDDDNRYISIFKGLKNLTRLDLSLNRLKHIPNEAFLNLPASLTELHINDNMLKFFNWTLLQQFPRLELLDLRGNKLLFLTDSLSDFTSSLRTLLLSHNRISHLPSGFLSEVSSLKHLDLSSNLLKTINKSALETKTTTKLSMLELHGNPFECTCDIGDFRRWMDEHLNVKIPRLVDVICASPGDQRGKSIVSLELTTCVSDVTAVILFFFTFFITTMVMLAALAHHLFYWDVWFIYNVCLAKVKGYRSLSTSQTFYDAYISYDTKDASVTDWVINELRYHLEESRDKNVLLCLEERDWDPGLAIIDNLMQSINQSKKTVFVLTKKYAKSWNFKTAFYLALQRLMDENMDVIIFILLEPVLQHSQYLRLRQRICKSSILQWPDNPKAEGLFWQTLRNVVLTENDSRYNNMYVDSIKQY
Assay type: cell-based
From the text: (§1) Human TLR2/-3/-4/-5/-7/-8/-9 Reporter Gene Assays (NF-κB Induction):
(§2) The induction of NF-κB was quantified using human TLR2/-3/-4/-5/-7/-8/-9-specific HEK-Blue™ reporter gene assays as previously described. HEK293 cells stably co-transfected with the appropriate hTLR, MD2, and secreted alkaline phosphatase (sAP), were maintained in HEK-Blue™ Selection medium containing zeocin and normocin. Stable expression of secreted alkaline phosphatase (sAP) under control of NF-κB/AP-1 promoters is inducible by appropriate TLR agonists, and extracellular sAP in the supernatant is proportional to NF-κB induction.

Q: For `Nc1nc2ccccc2c2ccoc12` [Compound A8a, furo[2,3-c]quinolin-4-amine], which “TLR8 agonistic activity” value is on record?
A: The value was “inactive”.

Q: For `Cc1cc2c(o1)c(N)nc1ccccc12` [Compound A8b, 2-methylfuro[2,3-c]quinolin-4-amine], which “TLR8 agonistic activity” value is on record?
A: Its value is “lower agonistic potencies”.

Q: `CCCc1cc2c(o1)c(N)nc1ccccc12` [Compound A8c, 2-propylfuro[2,3-c]quinolin-4-amine] was tested. Which “TLR8 agonistic activity” value did it give?
A: Its value is “lower agonistic potencies”.

Q: Which “TLR8 agonistic activity” value does the source give for `CCCCCc1cc2c(o1)c(N)nc1ccccc12` [Compound A8e, 2-pentylfuro[2,3-c]quinolin-4-amine] here?
A: Its value is “lower agonistic potencies”.

Q: `CCCCCCc1cc2c(o1)c(N)nc1ccccc12` [Compound A8f, 2-hexylfuro[2,3-c]quinolin-4-amine] was tested. Which “TLR8 agonistic activity” value did it give?
A: The value was “lower agonistic potencies”.

Q: `Nc1nc2ccccc2c2cc(-c3ccccc3)oc12` [Compound A8n, 2-phenylfuro[2,3-c]quinolin-4-amine] was tested. Which “TLR8 agonistic activity” value did it give?
A: The value was “inactive”.

Q: For `Nc1nc2ccccc2c2cc(Cc3ccccc3)oc12` [Compound A8o, 2-benzylfuro[2,3-c]quinolin-4-amine], which “TLR8 agonistic activity” value is on record?
A: The value was “inactive”.

Q: For `Nc1nc2ccccc2c2cc(CCCO)oc12` [Compound A8r, 3-(4-aminofuro[2,3-c]quinolin-2-yl)propan-1-ol], which “TLR8 agonistic activity” value is on record?
A: The value was “do not display TLR8 agonism”.

Q: `CC(C)CC(O)c1cc2c(o1)c(N)nc1ccccc12` (stereo not drawn) [Compound A8u, 1-(4-aminofuro[2,3-c]quinolin-2-yl)-3-methylbutan-1-ol] was tested. Which “TLR8 agonistic activity” value did it give?
A: The value was “do not display TLR8 agonism”.

Q: Which “TLR8 agonistic activity” value does the source give for `CC(O)Cc1cc2c(o1)c(N)nc1ccccc12` (stereo not drawn) [Compound A8v, 1-(4-aminofuro[2,3-c]quinolin-2-yl)propan-2-ol] here?
A: The value was “do not display TLR8 agonism”.

Q: Which “TLR8 agonistic activity” value does the source give for `CCCCc1cc2c(nc(N)c3ccccc32)o1` [Compound A18, 2-butylfuro[2,3-c]isoquinolin-5-amine] here?
A: The value was “inactive”.

Q: For `CCCc1cc2ccnc(N)c2o1` [Compound A28a, 2-propylfuro[2,3-c]pyridin-7-amine], which “TLR8 agonistic activity” value is on record?
A: The value was “retained TLR8-selective agonistic activities; also recorded: feeble activity”.

Q: `CCCCc1cc2ccnc(N)c2o1` [Compound A28b, 2-butylfuro[2,3-c]pyridin-7-amine] was tested. Which “TLR8 agonistic activity” value did it give?
A: Its value is “retained TLR8-selective agonistic activities; also recorded: feeble activity”.

Same assay, conditions: cell-based TLR8-specific NF-κB transactivation assay; read-out: TLR8 agonistic potency EC50

Q: With `CCCc1cc2ccnc(N)c2o1` [Compound A28a, 2-propylfuro[2,3-c]pyridin-7-amine] as the compound, how does the EC50 read?
A: The EC50 was 24.4 µM.

Q: With `CCCCc1cc2ccnc(N)c2o1` [Compound A28b, 2-butylfuro[2,3-c]pyridin-7-amine] as the compound, how does the EC50 read?
A: The EC50 was 46.2 µM.

Same assay, conditions: human TLR8-specific reporter gene assays, Table 1

Q: For `CCCCCCc1cc2ccccc2nc1N` [Compound 14c, 3-Hexylquinolin-2-amine], which “Agonistic Activity EC50 (μM) TLR8” value is on record?
A: The value was “Inactive”.

Q: With `CCCCCc1c(N)nc2ccccc2c1C` [Compound 21a, 4-Methyl-3-pentylquinolin-2-amine] as the compound, how does the “Agonistic Activity EC50 (μM) TLR8” value read?
A: The value was “Inactive^a”.

Q: How did the “Agonistic Activity EC50 (μM) TLR8” value turn out when `CCCCCc1c(N)nc2ccccc2c1CC` [Compound 21b, 4-Ethyl-3-pentylquinolin-2-amine] was run?
A: Its value is “Inactive”.

Q: How did the “Agonistic Activity EC50 (μM) TLR8” value turn out when `CCCCCc1c(N)nc2ccccc2c1CCC(C)C` [Compound 21c, 4-Isopentyl-3-pentylquinolin-2-amine] was run?
A: The value was “Inactive”.

Q: For `CCCCOc1cc(N)nc2ccccc12` [Compound 24a, 4-(Butyloxy)quinolin-2-amine], which “Agonistic Activity EC50 (μM) TLR8” value is on record?
A: Its value is “Inactive”.

Q: Which “Agonistic Activity EC50 (μM) TLR8” value does the source give for `CCCCCOc1cc(N)nc2ccccc12` [Compound 24b, 4-(Pentyloxy)quinolin-2-amine] here?
A: The value was “Inactive”.

Q: How did the “Agonistic Activity EC50 (μM) TLR8” value turn out when `CCCCc1cc(N)nc2ccccc12` [Compound 27a, 4-Butylquinolin-2-amine] was run?
A: Its value is “Inactive”.

Q: For `CCCCCc1cc(N)nc2ccccc12` [Compound 27b, 4-Pentylquinolin-2-amine], which “Agonistic Activity EC50 (μM) TLR8” value is on record?
A: The value was “Inactive”.

Same assay, conditions: human TLR8-specific reporter gene assays, Table 1; read-out: Agonistic Activity EC50 (μM) TLR8

Q: `CCCCOc1cc2ccccc2nc1N` [Compound 6, 3-(Butyloxy)quinolin-2-amine] was tested. Which EC50 did it give?
A: Its EC50 is 2.18 µM.

Q: With `CCCCCOc1cc2ccccc2nc1N` [Compound 6d, 3-(Pentyloxy)quinolin-2-amine] as the compound, how does the EC50 read?
A: Its EC50 is 7 µM.

Q: `CCCCCCOc1cc2ccccc2nc1N` [Compound 6e, 3-(Hexyloxy)quinolin-2-amine] was tested. Which EC50 did it give?
A: Its EC50 is 50 µM.

Q: How did the EC50 turn out when `CC(C)COc1cc2ccccc2nc1N` [Compound 6g, 3-(Isobutyloxy)quinolin-2-amine] was run?
A: The EC50 was 50 µM.

Q: For `CC(C)CCOc1cc2ccccc2nc1N` [Compound 6h, 3-(Isopentyloxy)quinolin-2-amine], which EC50 is on record?
A: The EC50 was 50 µM.

Q: How did the EC50 turn out when `CCCCNc1cc2ccccc2nc1N` [Compound 9, N^3-Butylquinoline-2,3-diamine] was run?
A: Its EC50 is 4.28 µM.

Q: `CCC/C=C/c1cc2ccccc2nc1N` [Compound 14d, (E)-3-(Pent-1-en-1-yl)quinolin-2-amine] was tested. Which EC50 did it give?
A: Its EC50 is 2.67 µM.

Q: How did the EC50 turn out when `CCCC#Cc1cc2ccccc2nc1N` [Compound 14f, 3-(Pent-1-yn-1-yl)quinolin-2-amine] was run?
A: The EC50 was 13 µM.

These compounds were tested on human TLR2, TLR3, TLR4, TLR5, TLR7, TLR9, TLR10, Nod1 and Nod2 (assay: counter-screens in reporter cell lines specific for other human TLRs and Nod1/2). Conditions: not given.
Assay type: cell-based

Q: With `CCCCOc1cc2ccccc2nc1N` [Compound 6, 3-(Butyloxy)quinolin-2-amine] as the compound, how does the “activity in counter-screens / specificity for human TLR8” value read?
A: Its value is “specific for human TLR8”.

Q: How did the “activity in counter-screens / specificity for human TLR8” value turn out when `CCCCNc1cc2ccccc2nc1N` [Compound 9, N^3-Butylquinoline-2,3-diamine] was run?
A: The value was “specific for human TLR8”.

Q: How did the “activity in counter-screens / specificity for human TLR8” value turn out when `CCCCSc1cc2ccccc2nc1N` [Compound 12, 3-(Butylthio)quinolin-2-amine] was run?
A: Its value is “specific for human TLR8”.

These compounds were tested on human peripheral blood mononuclear cells (assay: cytokine/chemokine induction in human PBMCs (multiplexed bead array immunoassays)). Conditions: 41-analyte multiplexed assay, human PBMCs, FIG. 9.
Assay type: cell-based
Method: Immunoassays for Cytokines:
Fresh human peripheral blood mononuclear cells (hPBMC) were isolated from human blood obtained by venipuncture with informed consent and as per institutional guidelines on Ficoll-Hypaque gradients. Aliquots of PBMCs (10^5 cells in 100 μL/well) were stimulated for 12 h with graded concentrations of test compounds. Supernatants were isolated by centrifugation, and were assayed in triplicates using analyte-specific multiplexed cytokine/chemokine bead array assays. PBMC supernatants were also analyzed for 41 chemokines and cytokines (EGF, Eotaxin, FGF-2, Fit-3 ligand, Fractalkine, G-CSF, GM-CSF, GRO, IFN-α2, IFN-γ, IL-10, IL-12 (p40), IL-12 (p70), IL-13, IL-15, IL-17, IL-1ra, IL-1α, IL-1β, IL-2, IL-3, IL-4, IL-5, IL-6, IL-7, IL-8, IL-9, IP-10, MCP-1, MCP-3, MDC (CCL22), MIP-1α, MIP-1β, PDGF-AA, PDGF-AB/BB, RANTES, TGFα, TNF-α, TNF-β, VEGF, sCD40L) using a magnetic bead-based multiplexed assay kit (Milliplex MAP Human Cytokine/Chemokine kit). Data were acquired and processed on a MAGPIX instrument (EMD Millipore, Billerica, Mass.) with an intra-assay coefficients of variation ranging from 4-8% for the 41 analytes.

Q: `CCCCc1nc2c(N)nc3ccccc3c2n1Cc1ccccc1` [1-benzyl-2-butyl-1H-imidazo[4,5-c]quinolin-4-amine] was tested. Which “induction of G-CSF, GRO, MIP-1α and MIP-1β” value did it give?
A: The value was “did not”.

Same assay, conditions: human PBMCs as well as whole human blood, FIGS. 3A-3T

Q: For `CCCCCc1cc2ccccc2nc1N` [Compound 14b, 3-Pentylquinolin-2-amine], which cytokine/chemokine induction profile is on record?
A: Its cytokine/chemokine induction profile is “induction of a specific set of chemokines and proinflammatory cytokines, including interleukins 12 and 18”.

Each compound was assayed on human TLR2/3/4/5/7/8/9 and NOD1/2 (assay: primary screens: panel of reporter gene assays for TLR and NOD modulatory activities). Conditions: human TLR2/3/4/5/7/8/9 and NOD1/2 reporter gene assays.
From the text: as §1, §2

Q: Which “activity in primary screens (reporter gene panel)” value (“activity in primary screens” for short) does the source give for `CCOCCc1cc2c(o1)c(N)nc1ccccc12` [Compound A8w, 2-(2-ethoxyethyl)furo[2,3-c]quinolin-4-amine] here?
A: Its value is “none of these compounds were active in any primary screens”.

Q: For `NCc1cc2c(o1)c(N)nc1ccccc12` [Compound A8x, 2-(aminomethyl)furo[2,3-c]quinolin-4-amine], which “activity in primary screens” value is on record?
A: The value was “none of these compounds were active in any primary screens”.

Q: `NCCc1cc2c(o1)c(N)nc1ccccc12` [Compound A8y, 2-(2-aminoethyl)furo[2,3-c]quinolin-4-amine] was tested. Which “activity in primary screens” value did it give?
A: The value was “none of these compounds were active in any primary screens”.
